Data reported in patent US9464071B2 (priority 2010, dated 2016).
“And” between values parts separate entries of the source, which are not always exact repeats. Identical values can stand only once. Counter-ions that a name gives are not always drawn.

melting point	SMILES
133 °C	COc1cc(OC)cc(N(CCNC(C)C)c2ccc3ncc(-c4c(C)nn(C)c4C)nc3c2)c1 (as salt: HCl) [Compound 623]
167 °C	COc1cc(OC)cc(N(CC2CNCCN2)c2ccc3ncc(-c4cnn(C)c4)nc3c2)c1 (stereo not drawn)
158.84 °C	COc1cc(OC)cc(N(CCCN2CCC(F)(F)C2)c2ccc3ncc(-c4cnn(C)c4)nc3c2)c1 [Compound 602]
80 °C	COc1cc(F)cc(N(CCO)c2ccc3ncc(-c4cn[nH]c4)nc3c2)c1
181 °C and 180 °C	CNc1cccc(CN(c2cc(OC)cc(OC)c2)c2ccc3ncc(-c4cnn(C)c4)nc3c2)n1
83 °C	COc1cc(OC)cc(N(c2ccc3ncc(-c4cnn(C)c4)nc3c2)[C@H]2CC[C@@H](NC(C)C)CC2)c1
155.31 °C	COc1cc(OC)cc(N(CCCN2CCCC2)c2ccc3ncc(-c4cnn(CCS(C)(=O)=O)c4)nc3c2)c1 [Compound 295]
134 °C	COc1cc(OC)cc(N(CC2CN(Cc3ccccc3)CCO2)c2ccc3ncc(-c4cnn(C)c4)nc3c2)c1 (stereo not drawn)
130 °C	COc1cc(OC)cc(N(CC2CC2)c2ccc3ncc(-c4cnn(CCN)c4)nc3c2)c1
181.91 °C	COc1cc(OC)cc(N(CC2CC2)c2ccc3ncc(-c4cnn(CCNS(C)(=O)=O)c4)nc3c2)c1 [Compound 271]
152 °C	COc1cc(OC)cc(N(CCN(Cc2ccc(N)cc2)C(C)C)c2ccc3ncc(-c4cnn(C)c4)nc3c2)c1 [Compound 658]
171 °C	COc1cc(OC)cc(N(Cc2cc(C)on2)c2ccc3ncc(-c4cnn(C)c4)nc3c2)c1
140.28 °C	COc1cc(OC)cc(N(Cc2ccc(Cl)s2)c2ccc3ncc(-c4cnn(C)c4)nc3c2)c1
154.94 °C	COc1cc(OC)cc(N(CC2CCOCC2)c2ccc3ncc(-c4cnn(C)c4)nc3c2)c1 [Compound 356]
224 °C	CNCC(O)CN(c1cc(OC)cc(OC)c1)c1ccc2ncc(-c3cnn(C)c3)nc2c1 (stereo not drawn) (as salt: HCl)
203 °C	COc1cc(OC)cc(N(Cc2cc[nH]n2)c2ccc3ncc(-c4cnn(C)c4)nc3c2)c1 (as salt: HCl)
80 °C	COc1cc(OCCO)cc(N(CC2CC2)c2ccc3ncc(-c4cnn(C)c4)nc3c2)c1 [Compound 24]
193.25 °C and 192 °C	COc1cc(OC)cc(N(CC#Cc2nccn2C)c2ccc3ncc(-c4cnn(C)c4)nc3c2)c1
> 260 °C	COc1cc(OC)cc(N(CCP(=O)(O)O)c2ccc3ncc(-c4cnn(C)c4)nc3c2)c1 (as salt: HBr)
130.63 °C	COc1cc(OC)cc(N(CC(O)CN2CCOCC2)c2ccc3ncc(-c4cnn(C)c4)nc3c2)c1 (stereo not drawn) [Compound 540]
157 °C	COc1cc(OC)cc(N(CC2COCC(C)(C)N2)c2ccc3ncc(-c4cnn(C)c4)nc3c2)c1 (stereo not drawn)
186 °C	COc1cc(O)cc(N(CCN)c2ccc3ncc(-c4cnn(C)c4)nc3c2)c1
146.13 °C	COc1cc(OC)cc(N(CC2CC2)c2ccc3ncc(-c4cnn(CCN5CCN(CCO)CC5)c4)nc3c2)c1
138 °C	c1ccc(N(CC2CC2)c2ccc3ncc(-c4cn[nH]c4)nc3c2)cc1 [Compound 54]

melting point	SMILES
146 °C	C=Cc1cc(OC)cc(N(CC2CC2)c2ccc3ncc(-c4cnn(C)c4)nc3c2)c1
158.73 °C	COc1cc(OC)cc(N(CCCNS(=O)(=O)N(C)C)c2ccc3ncc(-c4cnn(C)c4)nc3c2)c1 [Compound 316]
215.29 °C	COc1cc(OC)cc(N(CCCN2CCC(F)(F)C2)c2ccc3ncc(-c4cn[nH]c4)nc3c2)c1 (as salt: HCl)
106.81 °C	COc1cc(OC)cc(N(CC2CC2)c2ccc3ncc(-c4cnn(CCCNCCS(C)(=O)=O)c4)nc3c2)c1 [Compound 231]
103 °C and 103.14 °C	CNCCn1cc(-c2cnc3ccc(N(CC4CC4)c4cc(OC)cc(OC)c4)cc3n2)cn1
251.77 °C	[2H]C([2H])([2H])Oc1cc(OC)cc(N(CCNC(C)C)c2ccc3ncc(-c4cn[nH]c4)nc3c2)c1 [Compound 432]
138 °C	CCOc1cc(F)cc(N(CCO)c2ccc3ncc(-c4cnn(C)c4)nc3c2)c1 [Compound 401]
88 °C	COc1cc(OC)cc(N(CC2CN(C(C)C)CCO2)c2ccc3ncc(-c4cnn(C)c4)nc3c2)c1 (stereo not drawn)
110 °C	COCC(O)CN(c1cc(OC)cc(OC)c1)c1ccc2ncc(-c3cnn(C(C)C)c3)nc2c1 (stereo not drawn) (as salt: hydrochloric acid salt)
220 °C	COc1cc(OC)cc(N(CC#Cc2cc(Cl)nc(N)n2)c2ccc3ncc(-c4cnn(C)c4)nc3c2)c1
168 °C and 168.08 °C	COc1cc(OC)cc(N(CC2CCN(C(C)C)CC2)c2ccc3ncc(-c4cnn(C)c4)nc3c2)c1
70 °C	CCOc1cc(F)cc(N(CCN)c2ccc3ncc(-c4cnn(C)c4)nc3c2)c1 [Compound 478]
125 °C	COc1cc(O)cc(N(CCCO)c2ccc3ncc(-c4cn[nH]c4)nc3c2)c1
136.49 °C	COc1cc(OC)cc(N(CCN2CCN(C3CCN(C(C)=O)CC3)CC2)c2ccc3ncc(-c4cnn(C)c4)nc3c2)c1 [Compound 583]
142 °C	CNCCN(c1cc(OC)cc(OCCO)c1)c1ccc2ncc(-c3cnn(C)c3)nc2c1
147.77 °C	COc1cc(OC)cc(N(CCN2CCC(F)(F)CC2)c2ccc3ncc(-c4cnn(C)c4)nc3c2)c1 [Compound 431]
191.73 °C	COc1ccc(OC)c(N(CCO)c2ccc3ncc(-c4cnn(C)c4)nc3c2)c1
123.12 °C and 126 °C	COc1cc(OC)cc(N(CCCNCC(F)(F)F)c2ccc3ncc(-c4cnn(C)c4)nc3c2)c1
212 °C	COc1cc(OC)cc(N(CC(=O)Nc2cc(C)ccn2)c2ccc3ncc(-c4cnn(C)c4)nc3c2)c1
106 °C	C#CCN(c1cc(OC)cc(OC)c1)c1ccc2ncc(-c3cnn(CC4CCOCC4)c3)nc2c1
175.51 °C and 178 °C	COc1cc(OC)cc(N(CCCN)c2ccc3ncc(-c4cnn(C)c4)nc3c2)c1 [Compound 93, N-(3,5-Dimethoxyphenyl)-N-[3-(1-methyl-1H-pyrazol-4-yl)quinoxalin-6-yl]propane-1,3-diamine]
194 °C	COc1cc(F)cc(N(CCNC(C)C)c2ccc3ncc(-c4cn[nH]c4)nc3c2)c1
247 °C	COc1cccc(N(CCNC(C)C)c2ccc3ncc(-c4cnn(C)c4)nc3c2)c1
167.45 °C	COc1cc(OC)cc(N(CC2CC2)c2ccc3ncc(-c4cnn(CC(=O)NCCO)c4)nc3c2)c1

melting point	SMILES
182 °C	COc1cc(OC)cc(N(c2ccc3ncc(-c4cnn(C)c4)nc3c2)C(C)(C)C#Cc2nccc(OC)n2)c1 [Compound 806]
176 °C	COc1cc(OC)cc(N(CCO)c2ccc3ncc(-c4cnn(C)c4CN(C)C)nc3c2)c1
80 °C	COc1cc(OC)cc(N(CCN2C[C@H](C)C[C@@H](C)C2)c2ccc3ncc(-c4cnn(C)c4)nc3c2)c1 (as salt: HCl) [Compound 40]
194 °C	CN(C)c1cccc(N(CC2CC2)c2ccc3ncc(-c4cnn(C)c4)nc3c2)c1 [Compound 883]
178 °C	COC(=O)c1ccnc(C#CCN(c2cc(OC)cc(OC)c2)c2ccc3ncc(-c4cnn(C)c4)nc3c2)n1
203.4 °C and 203.41 °C	COc1cc(OC)cc(N(CC2CC2)c2ccc3ncc(-c4cnn(CC(=O)N5CCC(O)C5)c4)nc3c2)c1 (stereo not drawn)
99.32 °C	COc1cc(OC)cc(N(CCCN2CCC(F)(F)C2)c2ccc3ncc(-c4cnn(CC5CCOCC5)c4)nc3c2)c1 [Compound 459]
184 °C	CNC(=O)Cn1cc(-c2cnc3ccc(N(CCNC(C)C)c4cc(OC)cc(OC)c4)cc3n2)cn1 (as salt: HCl) [Compound 134, 2-(4-{7-[(3,5-Dimethoxyphenyl){2-[(1-methylethyl)amino]ethyl}amino]quinoxalin-2-yl}-1H-pyrazol-1-yl)-N-methylacetamide]
162.91 °C	COc1cc(OC)cc(N(CC2CC2)c2ccc3ncc(-c4cnn(CC(=O)NCCN5CCCC5)c4)nc3c2)c1
70 °C	COc1cc(OC)cc(N(CCN(Cc2ccccc2N)C(C)C)c2ccc3ncc(-c4cnn(C)c4)nc3c2)c1
166.37 °C	COc1cc(OC)cc(N(Cc2ccc(Cl)s2)c2ccc3ncc(-c4cn[nH]c4)nc3c2)c1 [Compound 323]
165 °C	COc1cc(OCCO)cc(N(CCN)c2ccc3ncc(-c4cnn(C)c4)nc3c2)c1
80 °C	CCOC(=O)C1CCN(CCN(c2cc(OC)cc(OC)c2)c2ccc3ncc(-c4cnn(C)c4)nc3c2)CC1 [Compound 343]
126.66 °C and 126 °C	COc1cc(OC)cc(N(C[C@@H]2C[C@H]2CO)c2ccc3ncc(-c4cnn(C)c4)nc3c2)c1 [Compound 89]
186 °C and 186.76 °C and 187 °C	COc1cc(OC)cc(N(CC(O)CO)c2ccc3ncc(-c4cnn(C)c4)nc3c2)c1 (stereo not drawn) [Compound 75]
127 °C	[2H]C([2H])([2H])Oc1cc(OC([2H])([2H])[2H])cc(N(CCCNCC(F)(F)F)c2ccc3ncc(-c4cnn(C)c4)nc3c2)c1
148 °C	COc1cc(OC)cc(N(CC#Cc2ccnc(N)n2)c2ccc3ncc(-c4cnn(C)c4)nc3c2)c1
127 °C	COc1cc(OC)cc(N(Cc2nc(OC)cc(OC)n2)c2ccc3ncc(-c4cnn(C)c4)nc3c2)c1
204.29 °C	COc1cc(OC)cc(N(CC2OCCO2)c2ccc3ncc(-c4cnn(C)c4)nc3c2)c1
168.25 °C	COc1cc(OC)cc(N(CCCO)c2ccc3ncc(-c4cnn(C5CCCCO5)c4)nc3c2)c1 (stereo not drawn)
151 °C	COc1cc(OC)cc(N(C[C@@H](O)C(F)(F)F)c2ccc3ncc(-c4cnn(CCCN)c4)nc3c2)c1 [Compound 660, 3-[{3-[1-(3-Aminopropyl)-1H-pyrazol-4-yl]quinoxalin-6-yl}(3,5-dimethoxyphenyl)amino]-1,1,1-trifluoropropan-2-ol]
152 °C	COc1cc(F)cc(N(CCCO)c2ccc3ncc(-c4cnn(C)c4)nc3c2)c1 [Compound 565]
143 °C	COc1cc(OC)cc(N(CCF)c2ccc3ncc(-c4cnn(C)c4)nc3c2)c1
144 °C	COc1cc(OC)cc(N(C/C(C)=N/O)c2ccc3ncc(-c4cnn(C)c4)nc3c2)c1 [Compound 80]
